Reference: patent US20260085073A1, “PYRAZOLYLCARBOXAMIDE COMPOUNDS AND THEIR USE IN THERAPY” (Hotspot Therapeutics, Inc., priority 2022, published 2026)

Target: T1, MALT1 (Homo sapiens, UniProt Q9UDY8)
T1 construct: Avi-tagged FL MALT-1 (Pharmaron, stored at −70° C.); Avi-tag
T1 sequence (Q9UDY8 1-824): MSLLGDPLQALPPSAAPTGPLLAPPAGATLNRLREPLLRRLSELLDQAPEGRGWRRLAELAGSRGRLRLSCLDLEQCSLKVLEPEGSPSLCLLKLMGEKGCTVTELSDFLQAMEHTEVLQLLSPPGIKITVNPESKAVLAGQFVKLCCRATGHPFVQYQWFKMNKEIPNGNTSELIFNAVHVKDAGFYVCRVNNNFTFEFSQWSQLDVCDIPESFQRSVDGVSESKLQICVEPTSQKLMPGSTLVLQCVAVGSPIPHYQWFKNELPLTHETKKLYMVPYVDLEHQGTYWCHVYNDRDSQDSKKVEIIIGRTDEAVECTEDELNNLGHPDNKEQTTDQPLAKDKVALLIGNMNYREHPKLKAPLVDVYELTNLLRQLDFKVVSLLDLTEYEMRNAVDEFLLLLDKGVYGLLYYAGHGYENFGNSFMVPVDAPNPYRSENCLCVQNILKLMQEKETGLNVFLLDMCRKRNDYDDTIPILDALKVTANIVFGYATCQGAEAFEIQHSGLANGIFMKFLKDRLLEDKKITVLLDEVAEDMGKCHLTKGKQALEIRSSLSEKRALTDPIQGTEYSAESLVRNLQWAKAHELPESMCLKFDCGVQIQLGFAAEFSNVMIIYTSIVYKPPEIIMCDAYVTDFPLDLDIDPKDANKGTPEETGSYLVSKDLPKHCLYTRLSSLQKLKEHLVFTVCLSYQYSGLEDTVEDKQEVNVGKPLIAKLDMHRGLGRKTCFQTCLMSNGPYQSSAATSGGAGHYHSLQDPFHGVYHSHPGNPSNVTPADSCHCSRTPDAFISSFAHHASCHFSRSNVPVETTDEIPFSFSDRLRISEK
Assay: MALT1 inhibition assay (MALT-1 Fluorogenic Peptide Cleavage Assay, Ac-LRSR-AMC substrate)
Type: biochemical
Settings: Avi-tagged FL MALT-1, 30 min pre-incubation, 90 min reaction at room temperature, fluorescence intensity
Outline: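 Full-length Avi-tagged MALT1 pre-incubated 30 min at room temperature with compounds (2% DMSO final) in HEPES pH 6.89, sodium citrate, TCEP, EDTA, CHAPS buffer. Ac-LRSR-AMC added from 50 µM (Km) or […] working stocks; 90 min at room temperature, AMC fluorescence (ex 342/em 441 nm); IC50 from % inhibition curves.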

**Q.** For O=C1c2c(C(F)(F)F)c(-c3ccccc3)nn2CCCN1c1ccnc(C(F)(F)F)c1 [Compound I-183, 2-phenyl-3-(trifluoromethyl)-5-(2-(trifluoromethyl)pyridin-4-yl)-5,6,7,8-tetrahydro-4H-pyrazolo[1,5-a][1,4]diazepin-4-one], which IC50 is on record?
**A.** The IC50 was over 10 µM.

**Q.** With O=C1c2c(C(F)(F)F)c(-c3ccccc3)nn2CCN1c1ccnc(C(F)(F)F)c1 [Compound I-184] as the molecule, how does the IC50 read?
**A.** The IC50 was over 10 µM.

**Q.** How did the IC50 turn out when CN(C)CCn1nc(-c2cccc3ccoc23)c(C(F)(F)F)c1C(=O)Nc1cnc(-n2nccn2)c(C#N)c1 [Compound I-186, 3-(benzofuran-7-yl)-N-(5-cyano-6-(2H-1,2,3-triazol-2-yl)pyridin-3-yl)-1-(2-(dimethylamino)ethyl)-4-(trifluoromethyl)-1H-pyrazole-5-carboxamide] was run?
**A.** Its IC50 is under 0.5 µM.

**Q.** With Cn1nc(-c2cccc3c(=O)[nH]cnc23)c(C(F)(F)F)c1C(=O)Nc1ccnc(C(F)(F)F)c1 [Compound I-187, 1-methyl-3-(4-oxo-3,4-dihydroquinazolin-8-yl)-4-(trifluoromethyl)-N-(2-(trifluoromethyl)pyridin-4-yl)-1H-pyrazole-5-carboxamide] as the molecule, how does the IC50 read?
**A.** Its IC50 is 2.5 to 10 µM.

**Q.** With O=C(Nc1cnc(-n2nccn2)c(Cl)c1)c1nn2c(c1C(F)(F)F)-c1ccccc1CC2 [Compound I-188, N-(5-chloro-6-(2H-1,2,3-triazol-2-yl)pyridin-3-yl)-1-(trifluoromethyl)-5,6-dihydropyrazolo[5,1-a]isoquinoline-2-carboxamide] as the molecule, how does the IC50 read?
**A.** Its IC50 is under 0.5 µM.

**Q.** O=C(Nc1cnc(-n2nccn2)c(Cl)c1)c1c(C(F)(F)F)c(-c2ccccc2)nn1C1CC1 [Compound I-189, N-(5-chloro-6-(2H-1,2,3-triazol-2-yl)pyridin-3-yl)-1-cyclopropyl-3-phenyl-4-(trifluoromethyl)-1H-pyrazole-5-carboxamide] was tested. Which IC50 did it give?
**A.** Its IC50 is under 0.5 µM.

**Q.** How did the IC50 turn out when O=C(Nc1cnc(-n2nccn2)c(C(F)(F)F)c1)c1c(C(F)(F)F)c(-c2ccccc2)nn1C1CC1 [Compound I-190] was run?
**A.** Its IC50 is 0.5 to 2.5 µM.

**Q.** How did the IC50 turn out when O=C(Nc1cnc(-n2nccn2)c(Cl)c1)c1nn(C2CC2)c(-c2ccccc2)c1C(F)(F)F [Compound I-191] was run?
**A.** The IC50 was 0.5 to 2.5 µM.

**Q.** How did the IC50 turn out when O=C(Nc1ccnc(C(F)(F)F)c1)c1nn(C2CC2)c(-c2ccccc2)c1C(F)(F)F [Compound I-192] was run?
**A.** Its IC50 is 0.5 to 2.5 µM.

**Q.** Cn1nc(C(=O)c2ccccc2)c(C(F)(F)F)c1C(=O)Nc1ccnc(C(F)(F)F)c1 [Compound I-193, 3-benzoyl-1-methyl-4-(trifluoromethyl)-N-(2-(trifluoromethyl)pyridin-4-yl)-1H-pyrazole-5-carboxamide] was tested. Which IC50 did it give?
**A.** Its IC50 is 0.5 to 2.5 µM.

**Q.** Which IC50 does the source give for Cn1nc(-c2cnc(CO)c3ccccc23)c(C(F)(F)F)c1C(=O)Nc1ccnc(C(F)(F)F)c1 [Compound I-194, 3-(1-(hydroxymethyl)isoquinolin-4-yl)-1-methyl-4-(trifluoromethyl)-N-(2-(trifluoromethyl)pyridin-4-yl)-1H-pyrazole-5-carboxamide] here?
**A.** Its IC50 is 2.5 to 10 µM.

**Q.** With Cn1nc(-c2cnc3ccccn23)c(C(F)(F)F)c1C(=O)Nc1ccnc(C(F)(F)F)c1 [Compound I-195, 3-(imidazo[1,2-a]pyridin-3-yl)-1-methyl-4-(trifluoromethyl)-N-(2-(trifluoromethyl)pyridin-4-yl)-1H-pyrazole-5-carboxamide] as the molecule, how does the IC50 read?
**A.** The IC50 was over 10 µM.

**Q.** For Cn1nc(-c2ccc(F)c(N)n2)c(C(F)(F)F)c1C(=O)Nc1ccnc(C(F)(F)F)c1 [Compound I-196, 3-(6-amino-5-fluoropyridin-2-yl)-1-methyl-4-(trifluoromethyl)-N-(2-(trifluoromethyl)pyridin-4-yl)-1H-pyrazole-5-carboxamide], which IC50 is on record?
**A.** The IC50 was 0.5 to 2.5 µM.

**Q.** With Cn1nc(-c2cccc3c2CCNC3)c(C(F)(F)F)c1C(=O)Nc1ccnc(C(F)(F)F)c1 [Compound I-197] as the molecule, how does the IC50 read?
**A.** The IC50 was over 10 µM.

**Q.** With Cn1nc(-c2cc(N)ncc2Cl)c(C(F)(F)F)c1C(=O)Nc1ccnc(C(F)(F)F)c1 [Compound I-198] as the molecule, how does the IC50 read?
**A.** The IC50 was under 0.5 µM.

**Q.** Which IC50 does the source give for COc1c(-c2nn(C)c(C(=O)Nc3ccnc(C(F)(F)F)c3)c2C(F)(F)F)ccnc1N [Compound I-199] here?
**A.** The IC50 was 2.5 to 10 µM.

**Q.** Cn1nc(C2CCNCC2)c(C(F)(F)F)c1C(=O)Nc1ccnc(C(F)(F)F)c1 [Compound I-200] was tested. Which IC50 did it give?
**A.** The IC50 was over 10 µM.

**Q.** Cn1nc(-c2n[nH]c3cnccc23)c(C(F)(F)F)c1C(=O)Nc1ccnc(C(F)(F)F)c1 [Compound I-201] was tested. Which IC50 did it give?
**A.** Its IC50 is over 10 µM.

**Q.** Which IC50 does the source give for Cn1nc(-c2c[nH]c3ncncc23)c(C(F)(F)F)c1C(=O)Nc1ccnc(C(F)(F)F)c1 [Compound I-202, 1-methyl-3-(7H-pyrrolo[2,3-d]pyrimidin-5-yl)-4-(trifluoromethyl)-N-(2-(trifluoromethyl)pyridin-4-yl)-1H-pyrazole-5-carboxamide] here?
**A.** Its IC50 is over 10 µM.

**Q.** With Cn1nc(-c2ccccc2CC(F)(F)F)cc1C(=O)Nc1ccnc(C(F)(F)F)c1 [Compound I-203, 1-methyl-3-(2-(2,2,2-trifluoroethyl)phenyl)-N-(2-(trifluoromethyl)pyridin-4-yl)-1H-pyrazole-5-carboxamide] as the molecule, how does the IC50 read?
**A.** Its IC50 is 2.5 to 10 µM.

**Q.** Cn1nc(C(=O)Nc2ccnc(C(F)(F)F)c2)c(C2CC2)c1-c1ccccc1 [Compound I-204, 4-cyclopropyl-1-methyl-5-phenyl-N-(2-(trifluoromethyl)pyridin-4-yl)-1H-pyrazole-3-carboxamide] was tested. Which IC50 did it give?
**A.** Its IC50 is 2.5 to 10 µM.

**Q.** Which IC50 does the source give for Cn1nc(-c2ccccc2)c(C2CC2)c1C(=O)Nc1ccnc(C(F)(F)F)c1 [Compound I-205] here?
**A.** Its IC50 is 0.5 to 2.5 µM.

**Q.** How did the IC50 turn out when Cn1nc(Oc2ccccc2)c(C(F)(F)F)c1C(=O)Nc1ccnc(C(F)(F)F)c1 [Compound I-206] was run?
**A.** The IC50 was 0.5 to 2.5 µM.

**Q.** Cn1nc(-c2ccccc2)cc1C(=O)Nc1ccc(C(=O)N2CC(O)C2)c(Cl)c1 [Compound I-207] was tested. Which IC50 did it give?
**A.** Its IC50 is over 10 µM.

**Q.** With Cn1nc(COc2ccccc2)c(C(F)(F)F)c1C(=O)Nc1ccnc(C(F)(F)F)c1 [Compound I-208] as the molecule, how does the IC50 read?
**A.** The IC50 was 2.5 to 10 µM.

**Q.** For CN(c1ccccc1)c1nn(C)c(C(=O)Nc2ccnc(C(F)(F)F)c2)c1C(F)(F)F [Compound I-209], which IC50 is on record?
**A.** Its IC50 is 0.5 to 2.5 µM.

**Q.** How did the IC50 turn out when Cn1nc(-c2cccc3nscc23)c(C(F)(F)F)c1C(=O)Nc1ccnc(C(F)(F)F)c1 [Compound I-210, 3-(benzo[c]isothiazol-4-yl)-1-methyl-4-(trifluoromethyl)-N-(2-(trifluoromethyl)pyridin-4-yl)-1H-pyrazole-5-carboxamide] was run?
**A.** The IC50 was under 0.5 µM.

**Q.** With O=C(Nc1cnc(-n2nccn2)c(Cl)c1)c1c(C(F)(F)F)c(-c2ccccc2)nn1CCO [Compound I-211, N-(5-chloro-6-(2H-1,2,3-triazol-2-yl)pyridin-3-yl)-1-(2-hydroxyethyl)-3-phenyl-4-(trifluoromethyl)-1H-pyrazole-5-carboxamide] as the molecule, how does the IC50 read?
**A.** The IC50 was 2.5 to 10 µM.

**Q.** How did the IC50 turn out when Cn1nc(-c2cccc3ncn(C)c23)c(C(F)(F)F)c1NC(=O)c1ccnc(C(F)(F)F)c1 [Compound I-221, N-(1-methyl-3-(1-methyl-1H-benzo[d]imidazol-7-yl)-4-(trifluoromethyl)-1H-pyrazol-5-yl)-2-(trifluoromethyl)isonicotinamide] was run?
**A.** The IC50 was 2.5 to 10 µM.

**Q.** For Cn1nc(-c2cccc3nccn23)c(C(F)(F)F)c1C(=O)Nc1cnc(-n2nccn2)c(C(F)(F)F)c1 [Compound I-222], which IC50 is on record?
**A.** The IC50 was under 0.5 µM.

**Q.** How did the IC50 turn out when Cc1ccc2ncsc2c1-c1nn(C)c(C(=O)Nc2ccnc(C(F)(F)F)c2)c1C(F)(F)F [Compound I-223] was run?
**A.** Its IC50 is 0.5 to 2.5 µM.

**Q.** How did the IC50 turn out when Cn1nc(-c2cccc3cncn23)c(C(F)(F)F)c1C(=O)Nc1ccnc(C(F)(F)F)c1 [Compound I-224] was run?
**A.** The IC50 was 0.5 to 2.5 µM.

**Q.** Which IC50 does the source give for Cn1nc(-c2cnc3cnccn23)c(C(F)(F)F)c1C(=O)Nc1ccnc(C(F)(F)F)c1 [Compound I-225] here?
**A.** Its IC50 is over 10 µM.

**Q.** For Cc1nc2cccc(-c3nn(C)c(C(=O)Nc4ccnc(C(F)(F)F)c4)c3C(F)(F)F)c2s1 [Compound I-226], which IC50 is on record?
**A.** Its IC50 is over 10 µM.

**Q.** How did the IC50 turn out when Cn1nc(-c2cccc3nccn23)c(C(F)(F)F)c1C(=O)Nc1ccnc(C2CC2)c1 [Compound I-227, N-(2-cyclopropylpyridin-4-yl)-3-(imidazo[1,2-a]pyridin-5-yl)-1-methyl-4-(trifluoromethyl)-1H-pyrazole-5-carboxamide] was run?
**A.** The IC50 was 2.5 to 10 µM.

**Q.** With Cc1cc(-c2nn(C)c(C(=O)Nc3ccnc(C(F)(F)F)c3)c2C(F)(F)F)n2ccnc2c1 [Compound I-228] as the molecule, how does the IC50 read?
**A.** Its IC50 is over 10 µM.

**Q.** Cc1cn2c(-c3nn(C)c(C(=O)Nc4ccnc(C(F)(F)F)c4)c3C(F)(F)F)cccc2n1 [Compound I-229] was tested. Which IC50 did it give?
**A.** The IC50 was 2.5 to 10 µM.

**Q.** For Cn1nc(-c2cncc3ccsc23)c(C(F)(F)F)c1C(=O)Nc1ccnc(C(F)(F)F)c1 [Compound I-230], which IC50 is on record?
**A.** Its IC50 is 0.5 to 2.5 µM.

**Q.** With Cn1nc(-c2n[nH]c3ncncc23)c(C(F)(F)F)c1C(=O)Nc1ccnc(C(F)(F)F)c1 [Compound I-231] as the molecule, how does the IC50 read?
**A.** The IC50 was over 10 µM.

**Q.** Which IC50 does the source give for COc1ccc2ncsc2c1-c1nn(C)c(C(=O)Nc2ccnc(C(F)(F)F)c2)c1C(F)(F)F [Compound I-232] here?
**A.** Its IC50 is under 0.5 µM.

**Q.** For Cn1nc(-c2cccn3nncc23)c(C(F)(F)F)c1C(=O)Nc1ccnc(C(F)(F)F)c1 [Compound I-233], which IC50 is on record?
**A.** Its IC50 is 2.5 to 10 µM.
